Test results reported in ChEMBL document CHEMBL3885861, “Open TG-GATES”.

Species: Rattus norvegicus
Assay: Open TG-GATES - Regimen: Single
Format: toxicity, organism-based, Sprague-Dawley
Set-up: regimen Single, gender Male, age 6 weeks
Details: in vivo, po, 1000 mg/kg, route gavage, dose level High; for APTT / Bas / Eos / Fbg / Hb / Ht / Lym / MCH / MCHC / MCV / Mono / Neu / PT / Plat / RBC / Ret / WBC: tissue Blood; for KIDNEY_L / KIDNEY_R / KIDNEY_TOTAL: tissue Kidney; for LIVER: tissue Liver; for A/G / ALP / ALT / AST / BUN / CRE / Ca / Cl / DBIL / GLC / IP / K / LDH / Na / PL / RALB / TBIL / TC / TG / TP / gamma-GTP: tissue Plasma

`CCOC(=O)CCC(=O)O[C@H]1[C@H](O[C@@H]2[C@@H](C)[C@H](O[C@H]3C[C@@](C)(OC)[C@@H](O)[C@H](C)O3)[C@@H](C)C(=O)O[C@H](CC)[C@@](C)(O)[C@H](O)[C@@H](C)C(=O)[C@H](C)C[C@@]2(C)O)O[C@H](C)C[C@@H]1N(C)C` [ERYTHROMYCIN ETHYLSUCCINATE] gave a TERMINAL_BW (3 h) of 217 g, an APTT (3 h) of 22.2 s and a Bas (3 h) of 0%. For the same compound, the Eos (3 h) was 1%, the Fbg (3 h) was 305.8 mg/dL and the Hb (3 h) was 13 g/dL. For the same compound, the Ht (3 h) was 39.2%, the Lym (3 h) was 74.6% and the MCH (3 h) was 20.5 pg. For the same compound, the MCHC (3 h) was 33.1%, the MCV (3 h) was 61.8 fL and the Mono (3 h) was 2.8%. The Neu (3 h) was 20%, the PT (3 h) was 15.4 s and the Plat (3 h) was 131 x10_4/uL. For the same compound, the RBC (3 h) was 635.4 x10_4/ul, the Ret (3 h) was 8.2% and the WBC (3 h) was 77.4 x10_2/uL. The KIDNEY_L (3 h) was 1 g, the KIDNEY_R (3 h) was 1 g and the KIDNEY_TOTAL (3 h) was 1.9 g. It also gave an LIVER (3 h) of 9.6 g, an A/G (3 h) of 1.2 and an ALP (3 h) of 1535.2 IU/L. The ALT (3 h) was 46 IU/L, the AST (3 h) was 76.6 IU/L and the BUN (3 h) was 11.8 mg/dL. It also gave a CRE (3 h) of 0.1 mg/dL, a Ca (3 h) of 10.4 mg/dL and a Cl (3 h) of 102.4 meq/L. For the same compound, the DBIL (3 h) was 0.014 mg/dL, the GLC (3 h) was 181.2 mg/dL and the IP (3 h) was 9.7 mg/dL. For the same compound, the K (3 h) was 3.7 meq/L, the LDH (3 h) was 158.4 IU/L and the Na (3 h) was 138 meq/L. It also gave a PL (3 h) of 143.8 mg/dL, an RALB (3 h) of 2.9 g/dL and a TBIL (3 h) of 0.05 mg/dL. The TC (3 h) was 74.2 mg/dL, the TG (3 h) was 40 mg/dL and the TP (3 h) was 5.4 g/dL. For the same compound, the gamma-GTP (3 h) was 1 IU/L, the TERMINAL_BW (6 h) was 219.9 g and the APTT (6 h) was 23.4 s. It also gave a Bas (6 h) of 0%, an Eos (6 h) of 1% and a Fbg (6 h) of 315 mg/dL. The Hb (6 h) was 13.3 g/dL, the Ht (6 h) was 40.7% and the Lym (6 h) was 73.2%. For the same compound, the MCH (6 h) was 20.6 pg, the MCHC (6 h) was 32.8% and the MCV (6 h) was 62.9 fL. For the same compound, the Mono (6 h) was 3.2%, the Neu (6 h) was 21% and the PT (6 h) was 15.7 s. The Plat (6 h) was 134.9 x10_4/uL, the RBC (6 h) was 647.6 x10_4/ul and the Ret (6 h) was 7.9%. The WBC (6 h) was 93.4 x10_2/uL, the KIDNEY_L (6 h) was 1 g and the KIDNEY_R (6 h) was 1.1 g. For the same compound, the KIDNEY_TOTAL (6 h) was 2.1 g, the LIVER (6 h) was 9.1 g and the A/G (6 h) was 1.2. It also gave an ALP (6 h) of 1632.2 IU/L, an ALT (6 h) of 45.8 IU/L and an AST (6 h) of 79.8 IU/L. For the same compound, the BUN (6 h) was 10.2 mg/dL, the CRE (6 h) was 0.1 mg/dL and the Ca (6 h) was 10.6 mg/dL. It also gave a Cl (6 h) of 104 meq/L, a DBIL (6 h) of 0.012 mg/dL and a GLC (6 h) of 176.8 mg/dL. For the same compound, the IP (6 h) was 10 mg/dL, the K (6 h) was 4 meq/L and the LDH (6 h) was 180 IU/L. For the same compound, the Na (6 h) was 138.8 meq/L, the PL (6 h) was 140.4 mg/dL and the RALB (6 h) was 2.9 g/dL. It also gave a TBIL (6 h) of 0.046 mg/dL, a TC (6 h) of 68.4 mg/dL and a TG (6 h) of 43.4 mg/dL. It also gave a TP (6 h) of 5.4 g/dL and a gamma-GTP (6 h) of 1.4 IU/L.
